This is an account of results in patent publication US20250179061A1 (SIRONAX LTD., priority 2022, published 2025).

The subject of this assay is HT-29 cells. In words: HT-29 necroptosis cell viability assay (TNF-α/SMAC mimetic/zVAD-FMK, CellTiter-Glo). The class given is cell-based. Particulars: Homo sapiens, HT-29, HT-29 necroptosis cell viability, IC50 class symbols; read-out: Activity. In outline: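 Necroptosis was triggered by TNF-α (10 ng/ml), SMAC mimetic (6 μM) and zVAD-FMK (10 μM) in serum-free medium during 20 h compound exposure (10 concentrations, threefold steps) of HT-29 cells. IC50 from duplicate dose-responses uses CellTiter-Glo ATP luminescence as viability read-out.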

`O=c1n(Cc2c(F)cccc2F)cnn1-c1ccc(Oc2ccnc(N3CCC34CNC4)c2)cc1` [Example 379, 2-(4-((2-(1,6-diazaspiro[3.3]heptan-1-yl)pyridin-4-yl)oxy)phenyl)-4-(2,6-difluorobenzyl)-2,4-dihydro-3H-1,2,4-triazol-3-one]: the IC50 is 100 to 1000 nM.

Take `O=c1n(Cc2c(F)cccc2F)cnn1-c1ccc(Oc2ccnc(N3CC4(CCNCC4)C3)c2)cc1` [Example 380, 2-[4-[[2-(2,7-diazaspiro[3.5]nonan-2-yl)-4-pyridyl]oxy]phenyl]-4-[(2,6-difluorophenyl)methyl]-1,2,4-triazol-3-one]: the IC50 is 100 to 1000 nM.

With `N#CC1(CNc2cc(Oc3ccc(-n4ncn(Cc5c(F)cccc5F)c4=O)cc3)ccn2)CC1` [Example 381, 1-(((4-(4-(4-(2,6-difluorobenzyl)-5-oxo-4,5-dihydro-1H-1,2,4-triazol-1-yl)phenoxy)pyridin-2-yl)amino)methyl)cyclopropane-1-carbonitrile], the IC50 was less than 100 nM.

For `C[C@@H]1CN(c2cc(Oc3ccc(-n4ncn(Cc5c(F)cccc5F)c4=O)cc3)ccn2)C[C@H](C)O1` [Example 382, 4-(2,6-difluorobenzyl)-2-(4-((2-((2R,6S)-2,6-dimethylmorpholino)pyridin-4-yl)oxy)phenyl)-2,4-dihydro-3H-1,2,4-triazol-3-one], the IC50 lay within 100 to 1000 nM.

In the case of `CC1(C#N)CN(c2cc(Oc3ccc(-n4ncn(Cc5c(F)cccc5F)c4=O)cc3)ccn2)C1` [Example 383, 1-(4-(4-(4-(2,6-difluorobenzyl)-5-oxo-4,5-dihydro-1H-1,2,4-triazol-1-yl)phenoxy)pyridin-2-yl)-3-methylazetidine-3-carbonitrile], the IC50 was less than 100 nM.

On to `N#CC1CCN(c2cc(Oc3ccc(-n4ncn(Cc5c(F)cccc5F)c4=O)cc3)ccn2)C1` (stereo not drawn) [Example 384, 1-(4-(4-(4-(2,6-difluorobenzyl)-5-oxo-4,5-dihydro-1H-1,2,4-triazol-1-yl)phenoxy)pyridin-2-yl)pyrrolidine-3-carbonitrile], for which the IC50 is less than 100 nM.

With `CC(C)(C)CCNc1cc(Oc2ccc(-n3ncn(Cc4c(F)cccc4F)c3=O)cc2)ccn1` [Example 385, 4-(2,6-difluorobenzyl)-2-(4-((2-((3,3-dimethylbutyl)amino)pyridin-4-yl)oxy)phenyl)-2,4-dihydro-3H-1,2,4-triazol-3-one], the IC50 lay within 1000 to 10000 nM.

For the compound `CC(C)(C)CNc1cc(Oc2ccc(-n3ncn(Cc4c(F)cccc4F)c3=O)cc2)ccn1` [Example 386, 4-(2,6-difluorobenzyl)-2-(4-((2-(neopentylamino)pyridin-4-yl)oxy)phenyl)-2,4-dihydro-3H-1,2,4-triazol-3-one], the IC50 is less than 100 nM.

Take `CC(C)(C)Nc1cc(Oc2ccc(-n3ncn(Cc4c(F)cccc4F)c3=O)cc2)ccn1` [Example 387, 2-(4-((2-(tert-butylamino)pyridin-4-yl)oxy)phenyl)-4-(2,6-difluorobenzyl)-2,4-dihydro-3H-1,2,4-triazol-3-one]: the IC50 was in the range of 100 to 1000 nM.

For `CC(C)(C)Oc1cc(Oc2ccc(-n3ncn(Cc4c(F)cccc4F)c3=O)cc2)ccn1` [Example 388, 2-(4-((2-(tert-butoxy)pyridin-4-yl)oxy)phenyl)-4-(2,6-difluorobenzyl)-2,4-dihydro-3H-1,2,4-triazol-3-one], the IC50 is 100 to 1000 nM.

Consider `C[C@@H]1[C@H](C#N)CN1c1nccc(Oc2ccc(-n3ncn(Cc4c(F)cccc4F)c3=O)cc2F)c1F` [Example 389, (2R,3R)-1-(4-(4-(4-(2,6-difluorobenzyl)-5-oxo-4,5-dihydro-1H-1,2,4-triazol-1-yl)-2-fluorophenoxy)-3-fluoropyridin-2-yl)-2-methylazetidine-3-carbonitrile], for which the IC50 was less than 100 nM.

`Cc1nc(N2CC(C)(N)C2)sc1Oc1ccc(-n2ncn(Cc3c(F)cccc3F)c2=O)cc1` [Example 390, 2-(4-((2-(3-amino-3-methylazetidin-1-yl)-4-methylthiazol-5-yl)oxy)phenyl)-4-(2,6-difluorobenzyl)-2,4-dihydro-3H-1,2,4-triazol-3-one]: the IC50 was less than 100 nM.

Regarding `N#CC12CC(Nc3nccc(Oc4ccc(-n5ncn(Cc6c(F)cccc6F)c5=O)cc4Cl)c3F)(C1)C2` [Example 391, 3-((4-(2-chloro-4-(4-(2,6-difluorobenzyl)-5-oxo-4,5-dihydro-1H-1,2,4-triazol-1-yl)phenoxy)-3-fluoropyridin-2-yl)amino)bicyclo[1.1.1]pentane-1-carbonitrile], the IC50 fell in the range of 100 to 1000 nM.

As to `N#CC12CC(Nc3cc(Oc4ccc(-n5ncn(Cc6c(F)cccc6F)c5=O)cc4Cl)c(F)cn3)(C1)C2` [Example 392, 3-((4-(2-chloro-4-(4-(2,6-difluorobenzyl)-5-oxo-4,5-dihydro-1H-1,2,4-triazol-1-yl)phenoxy)-5-fluoropyridin-2-yl)amino)bicyclo[1.1.1]pentane-1-carbonitrile], the IC50 is less than 100 nM.

As for `CC1(C#N)CCN(c2cc(Oc3ccc(-n4ncn(Cc5c(F)cccc5F)c4=O)cc3F)c(Cl)cn2)C1` (stereo not drawn) [Example 393, 1-(5-chloro-4-(4-(4-(2,6-difluorobenzyl)-5-oxo-4,5-dihydro-1H-1,2,4-triazol-1-yl)-2-fluorophenoxy)pyridin-2-yl)-3-methylpyrrolidine-3-carbonitrile], the IC50 is less than 100 nM.

For `CC1(C#N)CCN(c2cc(Oc3ccc(-n4ncn(Cc5c(F)cccc5F)c4=O)cc3F)c(F)cn2)C1` (stereo not drawn) [Example 394, 1-(4-(4-(4-(2,6-difluorobenzyl)-5-oxo-4,5-dihydro-1H-1,2,4-triazol-1-yl)-2-fluorophenoxy)-5-fluoropyridin-2-yl)-3-methylpyrrolidine-3-carbonitrile], the IC50 was less than 100 nM.

For `N#Cc1cnc(Cl)cc1Oc1ccc(-n2ncn(Cc3c(F)cccc3F)c2=O)cc1F` [Example 395, 6-chloro-4-(4-(4-(2,6-difluorobenzyl)-5-oxo-4,5-dihydro-1H-1,2,4-triazol-1-yl)-2-fluorophenoxy)nicotinonitrile], the IC50 lay in the range of 1000 to 10000 nM.

With `CC1(N)CN(c2cc(Oc3ccc(-n4ncn(Cc5c(F)cccc5F)c4=O)cc3F)c(C#N)cn2)C1` [Example 396, 6-(3-amino-3-methylazetidin-1-yl)-4-(4-(4-(2,6-difluorobenzyl)-5-oxo-4,5-dihydro-1H-1,2,4-triazol-1-yl)-2-fluorophenoxy)nicotinonitrile], the IC50 lay within 100 to 1000 nM.

For the compound `Cc1cnc(N2CCC(C)(C#N)C2)cc1Oc1ccc(-n2ncn(Cc3c(F)cccc3F)c2=O)cc1Cl` (stereo not drawn) [Example 397, 1-(4-(2-chloro-4-(4-(2,6-difluorobenzyl)-5-oxo-4,5-dihydro-1H-1,2,4-triazol-1-yl)phenoxy)-5-methylpyridin-2-yl)-3-methylpyrrolidine-3-carbonitrile], the IC50 was less than 100 nM.

On to `Cc1cnc(N2CC(C)(C#N)C2)cc1Oc1ccc(-n2ncn(Cc3c(F)cccc3F)c2=O)cc1Cl` [Example 398, 1-(4-(2-chloro-4-(4-(2,6-difluorobenzyl)-5-oxo-4,5-dihydro-1H-1,2,4-triazol-1-yl)phenoxy)-5-methylpyridin-2-yl)-3-methylazetidine-3-carbonitrile], for which the IC50 is less than 100 nM.

Turning to `CC1(CN)CN(c2cc(Oc3ccc(-n4ncn(Cc5c(F)cccc5F)c4=O)cc3F)c(F)cn2)C1` [Example 399, 2-(4-((2-(3-(aminomethyl)-3-methylazetidin-1-yl)-5-fluoropyridin-4-yl)oxy)-3-fluorophenyl)-4-(2,6-difluorobenzyl)-2,4-dihydro-3H-1,2,4-triazol-3-one], the IC50 lay within 100 to 1000 nM.
